BindingDB's records for doi:10.1021/jm900414x (University of Dundee, 2009)
pKi: −log10 of the molar value.

Target: T1, Pteridine reductase (Trypanosoma brucei brucei, UniProt O76290)
T1 sequence (O76290 whole entry): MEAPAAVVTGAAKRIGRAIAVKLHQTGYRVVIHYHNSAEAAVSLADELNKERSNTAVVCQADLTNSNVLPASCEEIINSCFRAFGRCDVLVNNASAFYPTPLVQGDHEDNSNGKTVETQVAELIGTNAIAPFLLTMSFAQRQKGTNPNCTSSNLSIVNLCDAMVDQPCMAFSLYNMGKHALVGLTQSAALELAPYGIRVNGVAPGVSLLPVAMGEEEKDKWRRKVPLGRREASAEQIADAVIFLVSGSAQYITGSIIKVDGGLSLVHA
Test: PTR1 Activity Assay
Conditions: pH 6; 23 °C
Method: TbPTR1 activity was measured in 96-well microtiter plates via reduction of cytochrome c (cytc) as a result of the enzymatic production of tetrahydrobiopterin (H4B). Enzyme activity was monitored by reading absorbance at 550 nm within the linear phase of reaction. Ki (app) values were calculated using a modified Morrison equation.

pKi: < 3.70
Compound: CCn1c(N)nc2ccccc21 [2-aminobenzimidazole deriv., 7]
